Measurements from patent publication US6656968B1, “(Z)-styryl acetoxyphenyl sulfides as cyclooxygenase inhibitors” (Temple University - Of the Commonwealth System of Higher …, priority 1999, dated 2003).

Legend:
HT29 cells [1] = assay: Soft agar assay, HT29 cells; type: cell-based, human; settings: HT29 in soft agar
Method: (§1) Z-styryl 2-acetoxyphenylsulfide (Example 1) was compared to the COX-2 inhibitor celecoxib in inhibiting the growth of HT29 cells in soft agar. HT29 cells are human colorectal carcinoma cells that overexpress COX-2. HT29 cells grow in soft agar and form tumors in nude mice. The soft agar assay was performed as follows. A layer of bottom agar ([…]) was placed onto 60 mm^2 tissue culture dishes. The tumor cells were trypsinized from normal growth flasks while in exponential growth. The cells were counted by using a hemacytometer and 1.0×10^5 cells were placed into the top agar mixture containing growth medium, […] and various concentrations of drugs. The concentration range was normally between 10 μM to 75 μM. The cells were not refed during the assay system; therefore, the cells were treated with one dose of the agents. The plates were stained 20 days later with a 0.05% (w/v) nitroblue tetrazolium solution (which stains only viable cells) for 48 hours. […] The same concentration of Z-styryl 2-acetoxyphenylsulfide had little affect on the growth of monolayer cells.

DLD-1 cells = assay: Soft agar assay, DLD-1 cells; type: cell-based, human; settings: DLD-1 in soft agar, highest concentration tested, versus untreated control cells (FIG. 1)
Method: as §1
The same assay was carried out with DLD-1 cells. Like HT29, DLD-1 cells are human colorectal carcinoma cells that overexpress COX-2. They grow in soft agar and form tumors in nude mice. The results are shown in FIG. 1, the y-axis being the percent of cell colonies remaining in comparison to untreated control cells.

human recombinant COX-2 = target: T1, human recombinant COX-2 (Homo sapiens, UniProt P35354); assay: Cyclooxygenase enzyme assay (TLC method), COX-2; type: biochemical; settings: human recombinant COX-2, preincubation 90-120 min, [1-14C]arachidonic acid 50 μM
T1 construct: purchased Oxford Biomedical Research Inc
T1 sequence (P35354 18-604): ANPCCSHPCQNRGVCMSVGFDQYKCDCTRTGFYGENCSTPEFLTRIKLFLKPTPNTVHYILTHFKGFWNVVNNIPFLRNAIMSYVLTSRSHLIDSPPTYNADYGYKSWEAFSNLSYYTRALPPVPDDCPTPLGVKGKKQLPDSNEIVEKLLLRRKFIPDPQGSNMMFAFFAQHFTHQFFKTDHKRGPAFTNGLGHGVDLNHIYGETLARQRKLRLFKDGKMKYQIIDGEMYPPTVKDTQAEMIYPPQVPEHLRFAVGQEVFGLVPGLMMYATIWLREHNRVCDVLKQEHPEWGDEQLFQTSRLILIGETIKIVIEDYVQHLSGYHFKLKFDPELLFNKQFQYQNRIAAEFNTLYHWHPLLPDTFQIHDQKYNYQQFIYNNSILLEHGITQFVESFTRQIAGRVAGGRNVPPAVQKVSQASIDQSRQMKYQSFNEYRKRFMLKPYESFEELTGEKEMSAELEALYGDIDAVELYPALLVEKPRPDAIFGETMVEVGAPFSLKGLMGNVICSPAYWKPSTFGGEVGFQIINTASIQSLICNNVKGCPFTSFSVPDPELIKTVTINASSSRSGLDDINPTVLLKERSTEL
Method: The compounds of formula I are potent inhibitors of COX-2. […] The resulting radiolabeled prostanoid compounds, i.e., the products of COX-2 reaction with arachidonic acid, were quantified.
(§2) Cyclooxygenase activity of ovine COX-1 (Oxford Biomedical Research Inc.) and human recombinant COX-2 Oxford Biomedical Research Inc.) was assayed by a thin layer chromatography (TLC) method as follows. All inhibitors were dissolved in dimethyl sulfoxide to a stock solution of 5 mM. Human recombinant COX-2 (3 units) or ovine COX-1 (15 units) was incubated with inhibitors at several concentrations in a solution containing 100 mM Tris-HCl, pH7.8, 500 uM phenol and hematin for 90 to 120 minutes at room temperature (24° C.). In controls, equal volumes of DMSO without drug were added to the incubation mixture. After incubation for 90-120 minutes, [1-^14C]arachidonic acid (50 μM, 51 mCi/mmol) (DuPont NEN) was added and incubated at 37° C. for 2 minutes. The reaction was terminated by extraction with 1 ml of ethyl acetate. The ethyl acetate layer was transferred into a fresh tube and evaporated to dryness in a Speedvac vacuum dryer. The contents of the tubes were reconstituted in […] of ethyl acetate and spotted on a TLC plate (J. T. Baker, Phillipsburg, N.J.) and developed in a mobile phase containing chloroform/methanol (95:5) at4° C. Radiolabeled prostanoid compounds (the products of COX enzymatic reaction with radiolabeled arachidonic acid substrate) were quantitated with a radioactivity scanner (Fuji, Phosphorimager). The percentage of total products observed at different inhibitor concentrations was divided by the percentage of the products observed for protein samples pre incubated for the same time with DMSO.

ovine COX-1 = target: T2, ovine COX-1 (Ovis aries, UniProt P05979); assay: Cyclooxygenase enzyme assay (TLC method), COX-1; type: biochemical; settings: ovine COX-1, preincubation 90-120 min, [1-14C]arachidonic acid 50 μM
T2 construct: purchased Oxford Biomedical Research Inc
T2 sequence (P05979 25-600): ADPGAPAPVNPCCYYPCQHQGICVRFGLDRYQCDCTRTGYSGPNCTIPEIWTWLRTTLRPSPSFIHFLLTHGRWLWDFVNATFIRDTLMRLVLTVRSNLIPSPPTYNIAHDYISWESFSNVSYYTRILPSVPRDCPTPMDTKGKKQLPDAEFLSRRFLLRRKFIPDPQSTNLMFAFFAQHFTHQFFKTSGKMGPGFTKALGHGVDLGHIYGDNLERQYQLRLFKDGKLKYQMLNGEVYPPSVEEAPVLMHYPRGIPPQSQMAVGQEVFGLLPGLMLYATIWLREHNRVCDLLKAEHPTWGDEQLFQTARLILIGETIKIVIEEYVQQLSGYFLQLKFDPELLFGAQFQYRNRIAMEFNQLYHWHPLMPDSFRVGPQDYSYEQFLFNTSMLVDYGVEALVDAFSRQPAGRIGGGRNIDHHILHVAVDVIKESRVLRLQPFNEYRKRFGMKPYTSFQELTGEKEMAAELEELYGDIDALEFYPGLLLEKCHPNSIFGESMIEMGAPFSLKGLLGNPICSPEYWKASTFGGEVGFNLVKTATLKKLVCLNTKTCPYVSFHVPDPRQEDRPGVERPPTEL
Method: as §2

HT29 cells [2] = assay: Growth of monolayer cells; type: cell-based, human; settings: same concentration (10 μM)
Method: as §1

Row | SMILES | inhibition of anchorage independent growth (HT29 cells [1]; lowest concentration tested (10 μM), one dose, stained 20 days later) | concentrations at which plates were devoid of all staining cells (HT29 cells [1]; nitroblue tetrazolium stain (viable cells)) | inhibition of cell colony growth (DLD-1 cells) [%] | IC50 (human recombinant COX-2) [nM] | IC50 (ovine COX-1) [µM] | effect on the growth of monolayer cells (HT29 cells [2])
1 | CC(=O)Oc1ccccc1S/C=C\c1ccccc1 [Example 1, Z-styryl 2-acetoxyphenylsulfide] | completely inhibited | above 20 μM | 100 | 150 | 5 | little affect
2 | CC(=O)Oc1ccccc1S/C=C\c1ccc(F)cc1 [Example 2, Z-4-Fluorostyryl 2-acetoxyphenylsulfide] | – | – | – | 350 | 4.5 | –
3 | CC(=O)Oc1ccccc1S/C=C\c1ccccc1Cl [Example 3, Z-2-Chlorostyryl 2-acetoxyphenylsulfide] | – | – | – | 250 | 4 | –
4 | CC(=O)Oc1ccccc1S/C=C\c1ccc(Cl)cc1 [Example 4, Z-4-Chlorostyryl 2-acetoxyphenylsulfide] | – | – | – | 200 | 4 | –
5 | CC(=O)Oc1cccc(/C=C\Sc2ccccc2OC(C)=O)c1 [Example 10, Z-3-Acetoxystyryl 2-acetoxyphenylsulfide] | – | – | – | 700 | 2 | –
